Data on 13 compounds can be found in US20250325711A1, “COVALENT FLUORESCENT PROBES FOR CANNABINOID RECEPTOR 2” (Hoffmann-La Roche Inc., priority 2022, published 2025).

The term Kd denotes the constant that tells how readily two partners part at equilibrium.

The target of one test is hCB2R (Homo sapiens (Human), UniProt P34972). The experiment in a line: TR-FRET hCB2R Binding Assay.
Conditions: not given
For orientation: In TR-FRET formats the signal depends on donor and acceptor labels being close together.
Consider `COc1cc(C(C)(C)CCCCCCN=[N+]=[N-])cc(OC)c1[C@H]1C=C(CNC(=O)CCCCCCCCNC(=O)c2ccc(=O)n(S(=O)(=O)c3cccc(C(=O)NCc4cn(CCOCCNc5ccc([N+](=O)[O-])c6nonc56)nn4)c3)c2)[C@H]2C[C@@H]1C2(C)C` [Example 7, N-(9-((((1S,4S,5S)-4-(4-(8-azido-2-methyloctan-2-yl)-2,6-dimethoxyphenyl)-6,6-dimethylbicyclo[3.1.1]hept-2-en-2-yl)methyl)amino)-9-oxononyl)-1-((3-(((1-(2-(2-((7-nitrobenzo[c][1,2,5]oxadiazol-4-yl)amino)ethoxy)ethyl)-1H-1,2,3-triazol-4-yl)methyl)carbamoyl)phenyl)sulfonyl)-6-oxo-1,6-dihydropyridine-3-carboxamide], for which the Kd was 0.0089 µM.

The same test, now with this note: SNAP-tagged human CB2R HEK293-TR cell membranes, TR-FRET (HTRF) detection, nonspecific binding with 1 μM SR144528; read-out: Kd hCB2R.
Turning to `COc1cc(C(C)(C)CCCCCCN=[N+]=[N-])cc(OC)c1[C@H]1C=C(CNC(=O)CCCCNC(=O)c2ccc(=O)n(S(=O)(=O)c3cccc(C(=O)NCCc4cn(CCOCCNc5ccc([N+](=O)[O-])c6nonc56)nn4)c3)c2)[C@H]2C[C@@H]1C2(C)C` [Example 1, N-(5-((((1S,4S,5S)-4-(4-(8-azido-2-methyloctan-2-yl)-2,6-dimethoxyphenyl)-6,6-dimethylbicyclo[3.1.1]hept-2-en-2-yl)methyl)amino)-5-oxopentyl)-1-((3-((2-(1-(2-(2-((7-nitrobenzo[c][1,2,5]oxadiazol-4-yl)amino)ethoxy)ethyl)-1H-1,2,3-triazol-4-yl)ethyl)carbamoyl)phenyl)sulfonyl)-6-oxo-1,6-dihydropyridine-3-carboxamide], the Kd turned out to be 0.0091 µM.
For `COc1cc(C(C)(C)CCCCCCN=[N+]=[N-])cc(OC)c1[C@H]1C=C(CNC(=O)CCCCCCNC(=O)c2ccc(=O)n(S(=O)(=O)c3cccc(C(=O)NCc4cn(CCOCCNc5ccc([N+](=O)[O-])c6nonc56)nn4)c3)c2)[C@H]2C[C@@H]1C2(C)C` [Example 2, N-(7-((((1S,4S,5S)-4-(4-(8-azido-2-methyloctan-2-yl)-2,6-dimethoxyphenyl)-6,6-dimethylbicyclo[3.1.1]hept-2-en-2-yl)methyl)amino)-7-oxoheptyl)-1-((3-(((1-(2-(2-((7-nitrobenzo[c][1,2,5]oxadiazol-4-yl)amino)ethoxy)ethyl)-1H-1,2,3-triazol-4-yl)methyl)carbamoyl)phenyl)sulfonyl)-6-oxo-1,6-dihydropyridine-3-carboxamide], the Kd is 0.0229 µM.
Still for that read-out and setting: for `CCCCCCC(C)(C)c1cc(OC)c([C@H]2C=C(CNC(=O)CCCCCCNC(=O)c3ccc(=O)n(S(=O)(=O)c4cccc(C(=O)NCc5cn(CCOCCNc6ccc([N+](=O)[O-])c7nonc67)nn5)c4)c3)[C@H]3C[C@@H]2C3(C)C)c(OC)c1` [Example 3, N-(7-((((1S,4S,5S)-4-(2,6-dimethoxy-4-(2-methyloctan-2-yl)phenyl)-6,6-dimethylbicyclo[3.1.1]hept-2-en-2-yl)methyl)amino)-7-oxoheptyl)-1-((3-(((1-(2-(2-((7-nitrobenzo[c][1,2,5]oxadiazol-4-yl)amino)ethoxy)ethyl)-1H-1,2,3-triazol-4-yl)methyl)carbamoyl)phenyl)sulfonyl)-6-oxo-1,6-dihydropyridine-3-carboxamide] the value was 0.0242 µM; for `COc1cc(C(C)(C)CCCCCCN=[N+]=[N-])cc(OC)c1[C@H]1C=C(CNC(=O)CCCCCCNC(=O)c2ccc(=O)n(S(=O)(=O)c3cccc(C(=O)NCc4cn(CCOCCOCCOCCOCCNc5ccc([N+](=O)[O-])c6nonc56)nn4)c3)c2)[C@H]2C[C@@H]1C2(C)C` [Example 4, N-(7-((((1S,4S,5S)-4-(4-(8-azido-2-methyloctan-2-yl)-2,6-dimethoxyphenyl)-6,6-dimethylbicyclo[3.1.1]hept-2-en-2-yl)methyl)amino)-7-oxoheptyl)-1-((3-(((1-(14-((7-nitrobenzo[c][1,2,5]oxadiazol-4-yl)amino)-3,6,9,12-tetraoxatetradecyl)-1H-1,2,3-triazol-4-yl)methyl)carbamoyl)phenyl)sulfonyl)-6-oxo-1,6-dihydropyridine-3-carboxamide], 0.0045 µM.
On the same count and under the same terms, as for `CCN(CC)c1ccc2cc(C=Cc3ccc(S(=O)(=O)[O-])c[n+]3CCCCCC(=O)NCCOCCn3cc(CNC(=O)c4cccc(S(=O)(=O)n5cc(C(=O)NCCCCCCC(=O)NCC6=C[C@H](c7c(OC)cc(C(C)(C)CCCCCCN=[N+]=[N-])cc7OC)[C@@H]7C[C@H]6C7(C)C)ccc5=O)c4)nn3)c(=O)oc2c1` [Example 5, 1-(6-((2-(2-(4-((3-((5-((7-((((1S,4S,5S)-4-(4-(8-azido-2-methyloctan-2-yl)-2,6-dimethoxyphenyl)-6,6-dimethylbicyclo[3.1.1]hept-2-en-2-yl)methyl)amino)-7-oxoheptyl)carbamoyl)-2-oxopyridin-1 (2H)-yl)sulfonyl)benzamido)methyl)-1H-1,2,3-triazol-1-yl)ethoxy)ethyl)amino)-6-oxohexyl)-6-(2-(7-(diethylamino)-2-oxo-2H-chromen-3-yl)vinyl)pyridin-1-ium-3-sulfonate], the figure is 0.059 µM; as for `COc1cc(C(C)(C)CCCCCCN=[N+]=[N-])cc(OC)c1[C@H]1C=C(CNC(=O)CCCCCCNC(=O)c2ccc(S(=O)(=O)N(Cc3ccccn3)C(=O)CCCCCNc3ccc([N+](=O)[O-])c4nonc34)cc2)[C@H]2C[C@@H]1C2(C)C` [Example 8, N-(7-((((1S,4S,5S)-4-(4-(8-azido-2-methyloctan-2-yl)-2,6-dimethoxyphenyl)-6,6-dimethylbicyclo[3.1.1]hept-2-en-2-yl)methyl)amino)-7-oxoheptyl)-4-(N-(6-((7-nitrobenzo[c][1,2,5]oxadiazol-4-yl)amino)hexanoyl)-N-(pyridin-2-ylmethyl)sulfamoyl)benzamide], 0.012 µM; as for `CCCCCCC(C)(C)c1cc(OC)c([C@H]2C=C(CNC(=O)CCCCCCNC(=O)c3ccc(S(=O)(=O)N(Cc4ccccn4)C(=O)CCCCCNc4ccc([N+](=O)[O-])c5nonc45)cc3)[C@H]3C[C@@H]2C3(C)C)c(OC)c1` [Example 9, N-(7-((((1S,4S,5S)-4-(2,6-dimethoxy-4-(2-methyloctan-2-yl)phenyl)-6,6-dimethylbicyclo[3.1.1]hept-2-en-2-yl)methyl)amino)-7-oxoheptyl)-4-(N-(6-((7-nitrobenzo[c][1,2,5]oxadiazol-4-yl)amino)hexanoyl)-N-(pyridin-2-ylmethyl)sulfamoyl)benzamide], 0.0355 µM.
Turning to `COc1cc(C(C)(C)CCCCCCN=[N+]=[N-])cc(OC)c1[C@H]1C=C(CNC(=O)CCCCCCNC(=O)c2ccc(S(=O)(=O)N(CC#N)C(=O)CCCCCNc3ccc([N+](=O)[O-])c4nonc34)cc2)[C@H]2C[C@@H]1C2(C)C` [Example 10, N-(7-((((1S,4S,5S)-4-(4-(8-azido-2-methyloctan-2-yl)-2,6-dimethoxyphenyl)-6,6-dimethylbicyclo[3.1.1]hept-2-en-2-yl)methyl)amino)-7-oxoheptyl)-4-(N-(cyanomethyl)-N-(6-((7-nitrobenzo[c][1,2,5]oxadiazol-4-yl)amino)hexanoyl)sulfamoyl)benzamide], the Kd is 0.0039 µM.
For `COc1cc(C(C)(C)CCCCCCN=[N+]=[N-])cc(OC)c1[C@H]1C=C(CNC(=O)CCCCCCNC(=O)c2ccc(S(=O)(=O)N(CC#N)C(=O)CCc3cn(CCOCCNc4ccc([N+](=O)[O-])c5nonc45)nn3)cc2)[C@H]2C[C@@H]1C2(C)C` [Example 11, N-(7-((((1S,4S,5S)-4-(4-(8-azido-2-methyloctan-2-yl)-2,6-dimethoxyphenyl)-6,6-dimethylbicyclo[3.1.1]hept-2-en-2-yl)methyl)amino)-7-oxoheptyl)-4-(N-(cyanomethyl)-N-(3-(1-(2-(2-((7-nitrobenzo[c][1,2,5]oxadiazol-4-yl)amino)ethoxy)ethyl)-1H-1,2,3-triazol-4-yl)propanoyl)sulfamoyl)benzamide], the dissociation constant Kd was 0.152 µM.
The same measure, in the same setting: as for `CCN(CC)c1ccc2cc(C=Cc3ccc(S(=O)(=O)[O-])c[n+]3CCCCCC(=O)NCCOCCn3cc(CCC(=O)N(CC#N)S(=O)(=O)c4ccc(C(=O)NCCCCCCC(=O)NCC5=C[C@H](c6c(OC)cc(C(C)(C)CCCCCCN=[N+]=[N-])cc6OC)[C@@H]6C[C@H]5C6(C)C)cc4)nn3)c(=O)oc2c1` [Example 12, 1-(6-((2-(2-(4-(3-((4-((7-((((1S,4S,5S)-4-(4-(8-azido-2-methyloctan-2-yl)-2,6-dimethoxyphenyl)-6,6-dimethylbicyclo[3.1.1]hept-2-en-2-yl)methyl)amino)-7-oxoheptyl)carbamoyl)-N-(cyanomethyl)phenyl)sulfonamido)-3-oxopropyl)-1H-1,2,3-triazol-1-yl)ethoxy)ethyl)amino)-6-oxohexyl)-6-(2-(7-(diethylamino)-2-oxo-2H-chromen-3-yl)vinyl)pyridin-1-ium-3-sulfonate], the figure is 0.025 µM; as for `COc1cc(C(C)(C)CCCCCCN=[N+]=[N-])cc(OC)c1[C@H]1C=C(CNC(=O)CCCCCCNC(=O)c2ccc(S(=O)(=O)N(CC#N)C(=O)CCc3cn(CCOCCNC(=O)c4ccc5c(c4)C4(OC5=O)c5ccc(N6CCC6)cc5[Si](C)(C)c5cc(N6CCC6)ccc54)nn3)cc2)[C@H]2C[C@@H]1C2(C)C` [Example 13, 3,7-di(azetidin-1-yl)-N-(2-(2-(4-(3-((4-((7-((((1S,4S,5S)-4-(4-(8-azido-2-methyloctan-2-yl)-2,6-dimethoxyphenyl)-6,6-dimethylbicyclo[3.1.1]hept-2-en-2-yl)methyl)amino)-7-oxoheptyl)carbamoyl)-N-(cyanomethyl)phenyl)sulfonamido)-3-oxopropyl)-1H-1,2,3-triazol-1-yl)ethoxy)ethyl)-5,5-dimethyl-3′-oxo-3′H,5H-spiro[dibenzo[b,e]siline-10,1′-isobenzofuran]-6′-carboxamide], 0.124 µM.
With `C#CCCC(=O)N(CC#N)S(=O)(=O)c1ccc(C(=O)NCCCCCCC(=O)NCC2=C[C@H](c3c(OC)cc(C(C)(C)CCCCCCN=[N+]=[N-])cc3OC)[C@@H]3C[C@H]2C3(C)C)cc1` [Example 14, N-(7-((((1S,4S,5S)-4-(4-(8-azido-2-methyloctan-2-yl)-2,6-dimethoxyphenyl)-6,6-dimethylbicyclo[3.1.1]hept-2-en-2-yl)methyl)amino)-7-oxoheptyl)-4-(N-(cyanomethyl)-N-(pent-4-ynoyl)sulfamoyl)benzamide], the dissociation constant (Kd) was found to be 0.0015 µM.
